Source: paper PMC10408569, “Recruitment of hexahydroquinoline as anticancer scaffold targeting inhibition of wild and mutants EGFR (EGFR^WT, EGFR^T790M, and EGFR^L858R)” (Journal of Enzyme Inhibition and Medicinal Chemistry, 2023)

How the values were obtained:
DU-145 = experiment: NCI-60 anticancer screening (SRB); format: cell-based; conditions: Homo sapiens; DU-145, prostate cancer; one dose 10 μM; read-out: Growth Inhibition Percentage (GI %)
SF-295 = experiment: NCI-60 anticancer screening (SRB); format: cell-based; conditions: Homo sapiens; SF-295, CNS cancer; one dose 10 μM; read-out: Growth Inhibition Percentage (GI %)
ACHN = experiment: NCI-60 anticancer screening (SRB); format: cell-based; conditions: Homo sapiens, renal cancer, one dose 10 μM, read-out: Growth Inhibition Percentage (GI %)
EKVX = experiment: NCI-60 anticancer screening (SRB); format: cell-based; conditions: Homo sapiens, NSC lung cancer, one dose 10 μM, read-out: Growth Inhibition Percentage (GI %)
HCT-116 = experiment: NCI-60 anticancer screening (SRB); format: cell-based; conditions: Homo sapiens; HCT-116, colon cancer; one dose 10 μM; read-out: Growth Inhibition Percentage (GI %)
SF-539 = experiment: NCI-60 anticancer screening (SRB); format: cell-based; conditions: Homo sapiens; SF-539, CNS cancer; one dose 10 μM; read-out: Growth Inhibition Percentage (GI %)
T-47D = experiment: NCI-60 anticancer screening (SRB); format: cell-based; conditions: Homo sapiens, T47D, breast cancer, one dose 10 μM, read-out: Growth Inhibition Percentage (GI %)
IGROV1 = experiment: NCI-60 anticancer screening (SRB); format: cell-based; conditions: Homo sapiens, IGROV-1; IGROV1, ovarian cancer; one dose 10 μM; read-out: Growth Inhibition Percentage (GI %)
CAKI-1 = experiment: NCI-60 anticancer screening (SRB); format: cell-based; conditions: Homo sapiens; CAKI-1, renal cancer; one dose 10 μM; read-out: Growth Inhibition Percentage (GI %)
HT29 = experiment: NCI-60 anticancer screening (SRB); format: cell-based; conditions: Homo sapiens, HT-29; HT29, colon cancer; one dose 10 μM; read-out: Growth Inhibition Percentage (GI %)
786-0 = experiment: NCI-60 anticancer screening (SRB); format: cell-based; conditions: Homo sapiens; 786-0, renal cancer; one dose 10 μM; read-out: Growth Inhibition Percentage (GI %)
NCI-H460 = experiment: NCI-60 anticancer screening (SRB); format: cell-based; conditions: Homo sapiens; NCI-H460, NSC lung cancer; one dose 10 μM; read-out: Growth Inhibition Percentage (GI %)
SNB-75 = experiment: NCI-60 anticancer screening (SRB); format: cell-based; conditions: Homo sapiens; SNB-75, CNS cancer; one dose 10 μM; read-out: Growth Inhibition Percentage (GI %)
SN 12C = experiment: NCI-60 anticancer screening (SRB); format: cell-based; conditions: Homo sapiens, SN12C; SN 12C, renal cancer; one dose 10 μM; read-out: Growth Inhibition Percentage (GI %)
HOP-92 = experiment: NCI-60 anticancer screening (SRB); format: cell-based; conditions: Homo sapiens; HOP-92, NSC lung cancer; one dose 10 μM; read-out: Growth Inhibition Percentage (GI %)
SF-268 = experiment: NCI-60 anticancer screening (SRB); format: cell-based; conditions: Homo sapiens; SF-268, CNS cancer; one dose 10 μM; read-out: Growth Inhibition Percentage (GI %)
SR = experiment: NCI-60 anticancer screening (SRB); format: cell-based; conditions: Homo sapiens, leukemia, one dose 10 μM, read-out: Growth Inhibition Percentage (GI %)
SK-MEL-5 = experiment: NCI-60 anticancer screening (SRB); format: cell-based; conditions: Homo sapiens; SK-MEL-5, melanoma; one dose 10 μM; read-out: Growth Inhibition Percentage (GI %)
OVCAR-5 = experiment: NCI-60 anticancer screening (SRB); format: cell-based; conditions: Homo sapiens; OVCAR-5, ovarian cancer; one dose 10 μM; read-out: Growth Inhibition Percentage (GI %)
M14 = experiment: NCI-60 anticancer screening (SRB); format: cell-based; conditions: Homo sapiens; M14, melanoma; one dose 10 μM; read-out: Growth Inhibition Percentage (GI %)
LOX IMVI = experiment: NCI-60 anticancer screening (SRB); format: cell-based; conditions: Homo sapiens, melanoma, one dose 10 μM, read-out: Growth Inhibition Percentage (GI %)
SNB-19 = experiment: NCI-60 anticancer screening (SRB); format: cell-based; conditions: Homo sapiens; SNB-19, CNS cancer; one dose 10 μM; read-out: Growth Inhibition Percentage (GI %)
UACC-257 = experiment: NCI-60 anticancer screening (SRB); format: cell-based; conditions: Homo sapiens; UACC-257, melanoma; one dose 10 μM; read-out: Growth Inhibition Percentage (GI %)
A498 = experiment: NCI-60 anticancer screening (SRB); format: cell-based; conditions: Homo sapiens; A498, renal cancer; one dose 10 μM; read-out: Growth Inhibition Percentage (GI %)
U251 = experiment: NCI-60 anticancer screening (SRB); format: cell-based; conditions: Homo sapiens, U-251; U251, CNS cancer; one dose 10 μM; read-out: Growth Inhibition Percentage (GI %)
RPMI-8226 = experiment: NCI-60 anticancer screening (SRB); format: cell-based; conditions: Homo sapiens; RPMI-8226, leukemia; one dose 10 μM; read-out: Growth Inhibition Percentage (GI %)
NCI-H226 = experiment: NCI-60 anticancer screening (SRB); format: cell-based; conditions: Homo sapiens; NCI-H226, NSC lung cancer; one dose 10 μM; read-out: Growth Inhibition Percentage (GI %)
NCI-H522 = experiment: NCI-60 anticancer screening (SRB); format: cell-based; conditions: Homo sapiens; NCI-H522, NSC lung cancer; one dose 10 μM; read-out: Growth Inhibition Percentage (GI %)
K-562 = experiment: NCI-60 anticancer screening (SRB); format: cell-based; conditions: Homo sapiens, K562; K-562, leukemia; one dose 10 μM; read-out: Growth Inhibition Percentage (GI %)
SK-MEL-2 = experiment: NCI-60 anticancer screening (SRB); format: cell-based; conditions: Homo sapiens; SK-MEL-2, melanoma; one dose 10 μM; read-out: Growth Inhibition Percentage (GI %)
MALME-3M = experiment: NCI-60 anticancer screening (SRB); format: cell-based; conditions: Homo sapiens, melanoma, one dose 10 μM, read-out: Growth Inhibition Percentage (GI %)
HOP-62 = experiment: NCI-60 anticancer screening (SRB); format: cell-based; conditions: Homo sapiens; HOP-62, NSC lung cancer; one dose 10 μM; read-out: Growth Inhibition Percentage (GI %)

CCOC(=O)C1=C(N)N(c2ccccc2)C2=C(C(=O)CC(C)(C)C2)C1c1ccc(N2CCOCC2)cc1 (racemic) [8l, (±)-Ethyl 2-amino-7,7-dimethyl-4-[4-(morpholin-4-yl)phenyl]-5-oxo-1-phenyl-1,4,5,6,7,8-hexahydroquinoline-3-carboxylate]
inhibition at 10 µM (DU-145): < 10% | inhibition at 10 µM (SF-295): < 10% | inhibition at 10 µM (ACHN): < 10% | inhibition at 10 µM (EKVX): < 10% | inhibition at 10 µM (HCT-116): < 10% | inhibition at 10 µM (SF-539): < 10% | inhibition at 10 µM (T-47D): < 10% | inhibition at 10 µM (IGROV1): < 10% | inhibition at 10 µM (CAKI-1): 18% | inhibition at 10 µM (HT29): < 10% | inhibition at 10 µM (786-0): 16% | inhibition at 10 µM (NCI-H460): < 10% | inhibition at 10 µM (SNB-75): < 10% | inhibition at 10 µM (SN 12C): < 10% | melting point: 193 to 195 °C | inhibition at 10 µM (HOP-92): 12% | inhibition at 10 µM (SF-268): < 10% | inhibition at 10 µM (SR): 16% | inhibition at 10 µM (SK-MEL-5): < 10% | inhibition at 10 µM (OVCAR-5): < 10% | inhibition at 10 µM (M14): < 10% | inhibition at 10 µM (LOX IMVI): < 10% | inhibition at 10 µM (SNB-19): < 10% | inhibition at 10 µM (UACC-257): < 10% | inhibition at 10 µM (A498): < 10% | inhibition at 10 µM (U251): < 10% | inhibition at 10 µM (RPMI-8226): < 10% | inhibition at 10 µM (NCI-H226): < 10% | inhibition at 10 µM (NCI-H522): 11% | inhibition at 10 µM (K-562): < 10% | inhibition at 10 µM (SK-MEL-2): < 10% | inhibition at 10 µM (MALME-3M): < 10% | inhibition at 10 µM (HOP-62): < 10%

CCOC(=O)C1=C(N)N(c2ccc(C)cc2)C2=C(C(=O)CC(C)(C)C2)C1c1ccccc1OC (racemic) [6h, (±)-Ethyl 2-amino-4–(2-methoxyphenyl)-7,7-dimethyl-1–(4-methylphenyl)-5-oxo-1,4,5,6,7,8-hexahydroquinoline-3-carboxylate]
inhibition at 10 µM (DU-145): < 10% | inhibition at 10 µM (SF-295): < 10% | inhibition at 10 µM (ACHN): < 10% | inhibition at 10 µM (EKVX): < 10% | inhibition at 10 µM (HCT-116): < 10% | inhibition at 10 µM (SF-539): < 10% | inhibition at 10 µM (T-47D): < 10% | inhibition at 10 µM (IGROV1): < 10% | inhibition at 10 µM (CAKI-1): < 10% | inhibition at 10 µM (HT29): < 10% | inhibition at 10 µM (786-0): < 10% | inhibition at 10 µM (NCI-H460): < 10% | inhibition at 10 µM (SNB-75): < 10% | inhibition at 10 µM (SN 12C): < 10% | melting point: 181 to 183 °C | inhibition at 10 µM (HOP-92): < 10% | inhibition at 10 µM (SF-268): < 10% | inhibition at 10 µM (SR): < 10% | inhibition at 10 µM (SK-MEL-5): < 10% | inhibition at 10 µM (OVCAR-5): < 10% | inhibition at 10 µM (M14): < 10% | inhibition at 10 µM (LOX IMVI): < 10% | inhibition at 10 µM (SNB-19): < 10% | inhibition at 10 µM (UACC-257): < 10% | inhibition at 10 µM (A498): < 10% | inhibition at 10 µM (U251): < 10% | inhibition at 10 µM (RPMI-8226): < 10% | inhibition at 10 µM (NCI-H226): < 10% | inhibition at 10 µM (NCI-H522): < 10% | inhibition at 10 µM (K-562): < 10% | inhibition at 10 µM (SK-MEL-2): < 10% | inhibition at 10 µM (MALME-3M): < 10% | inhibition at 10 µM (HOP-62): < 10%

CCOC(=O)C1=C(N)N(c2ccc(Cl)cc2)C2=C(C(=O)CC(C)(C)C2)C1c1ccc(F)cc1 (racemic) [8b, (±)-Ethyl 2-amino-1–(4-chlorophenyl)-4–(4-fluoroyphenyl)-7,7-dimethyl-5-oxo-1,4,5,6,7,8-hexahydroquinoline-3-carboxylate]
inhibition at 10 µM (DU-145): < 10% | inhibition at 10 µM (SF-295): 12% | inhibition at 10 µM (ACHN): < 10% | inhibition at 10 µM (EKVX): 25% | inhibition at 10 µM (HCT-116): 34% | inhibition at 10 µM (SF-539): < 10% | inhibition at 10 µM (T-47D): 27% | inhibition at 10 µM (IGROV1): < 10% | inhibition at 10 µM (CAKI-1): 26% | inhibition at 10 µM (HT29): 39% | inhibition at 10 µM (786-0): 20% | inhibition at 10 µM (NCI-H460): < 10% | inhibition at 10 µM (SNB-75): < 10% | inhibition at 10 µM (SN 12C): < 10% | melting point: 256 to 258 °C | inhibition at 10 µM (HOP-92): 21% | inhibition at 10 µM (SF-268): < 10% | inhibition at 10 µM (SR): < 10% | inhibition at 10 µM (SK-MEL-5): 29% | inhibition at 10 µM (OVCAR-5): < 10% | inhibition at 10 µM (M14): 14% | inhibition at 10 µM (LOX IMVI): 14% | inhibition at 10 µM (SNB-19): 22% | inhibition at 10 µM (UACC-257): 11% | inhibition at 10 µM (A498): < 10% | inhibition at 10 µM (U251): 21% | inhibition at 10 µM (RPMI-8226): < 10% | inhibition at 10 µM (NCI-H226): < 10% | inhibition at 10 µM (NCI-H522): 40% | inhibition at 10 µM (K-562): < 10% | inhibition at 10 µM (SK-MEL-2): 20% | inhibition at 10 µM (MALME-3M): < 10% | inhibition at 10 µM (HOP-62): < 10%
